For one experiment, the target named is PHD2 (Homo sapiens (Human), UniProt Q9GZT9). Kind of experiment: PHD2 Enzymatic Assay (AlphaScreen). In kind it is biochemical. Conditions: 30 min preincubation at RT.
The test system of a further experiment is Hep3B cell. Kind of experiment: EPO Elisa Assay in Hep3B cells. In kind it is cell-based. Conditions: Homo sapiens, 24 h at 37° C.

Consider 15 molecules from US11780854B2, “Prolyl hydroxylase domain-containing protein (PHD) inhibitors and uses thereof” (Insilico Medicine IP Limited, priority 2021, dated 2023).

PHD2, sequence (Q9GZT9 whole entry): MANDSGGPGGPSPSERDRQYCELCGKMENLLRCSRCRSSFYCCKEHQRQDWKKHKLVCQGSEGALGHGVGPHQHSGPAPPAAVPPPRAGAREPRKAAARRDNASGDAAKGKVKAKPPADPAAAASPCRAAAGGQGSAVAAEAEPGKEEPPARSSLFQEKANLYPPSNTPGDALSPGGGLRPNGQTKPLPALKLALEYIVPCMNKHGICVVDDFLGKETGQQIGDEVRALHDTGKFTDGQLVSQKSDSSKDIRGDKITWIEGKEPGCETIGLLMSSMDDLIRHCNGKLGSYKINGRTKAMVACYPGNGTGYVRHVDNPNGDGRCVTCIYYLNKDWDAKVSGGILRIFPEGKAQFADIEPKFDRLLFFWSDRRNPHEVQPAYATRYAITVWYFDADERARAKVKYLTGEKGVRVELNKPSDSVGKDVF

At PHD2, `N#Cc1ccc(CNC(=O)c2ncc3nc(N4C[C@H]5C[C@@H]4CO5)ccc3c2O)cn1` [compound 43] came in with a half-inhibitory concentration (IC50) of under 5 nM. For the same molecule, the EC50 in the experiment on Hep3B cell fell in the range of 2500 to 5000 nM.

On to `N#Cc1ccc(CNC(=O)c2ncc3nc(N4C[C@@H]5C[C@H]4CN5C4CC4)ccc3c2O)cn1` [compound 80], for which the IC50 on PHD2 is under 5 nM. In the experiment on Hep3B cell, this molecule showed a concentration for a half-maximal effect (EC50) of under 2500 nM. The corresponding values for `CC(C)(C)OC(=O)N1C[C@@H]2CN(c3ccc4c(O)c(C(=O)NCc5ccc(C#N)nc5)ncc4n3)C[C@@H]2C1` [compound 117] are under 5 nM and 2500 to 5000 nM.

Consider `CC(C)(C)OC(=O)N1CC2(C1)CN(c1ccc3c(O)c(C(=O)NCc4ccc(C#N)nc4)ncc3n1)C2` [compound 91], for which, at PHD2, the IC50 was under 5 nM. In addition, the EC50 with Hep3B cell was under 2500 nM. In turn, `CC(C)(C)OC(=O)N1C[C@@H]2C[C@H]1CN2c1ccc2c(O)c(C(=O)NCc3ccc(C#N)nc3)ncc2n1` [compound 116] came in with an IC50 on PHD2 of under 5 nM. The EC50 in the experiment with Hep3B cell lay within 10000 to 100000 nM.

In turn, `N#Cc1ccc(CNC(=O)c2ncc3nc(N4C[C@@H]5C[C@H]4CN5C4CC4)ccc3c2O)c(Cl)c1` [compound 68] gave an IC50 against PHD2 of 5 to 20 nM. Moreover, in the experiment on Hep3B cell, the EC50 is under 2500 nM. In the experiment with Hep3B cell, `N#Cc1ccc(CNC(=O)c2ncc3nc(N4CC5CC4CO5)ccc3c2O)cn1` (centres unmarked) [compound 30] gave an EC50 of 2500 to 5000 nM. The molecule `N#Cc1ccc(CNC(=O)c2ncc3nc(N4CCC5(COC5)C4)ccc3c2O)c(Cl)c1` [compound 8] had an IC50 against PHD2 of 5 to 20 nM. Moreover, the EC50 in the experiment with Hep3B cell was in the range of 2500 to 5000 nM.

Molecule `CN1CCC2(CCN(c3ccc4c(O)c(C(=O)NCc5ccc(C#N)nc5)ncc4n3)CC2)C1=O` [compound 67] registered an IC50 against PHD2 of under 5 nM. The same molecule registered an EC50 in the experiment with Hep3B cell of 5000 to 7500 nM.

At PHD2, `CC(C)(C)OC(=O)N[C@@H]1CN(c2ccc3c(O)c(C(=O)NCc4ccc(C#N)nc4)ncc3n2)CC12CC2` [compound 145] registered an IC50 of under 5 nM. This molecule returned an EC50 in the experiment with Hep3B cell of 10000 to 100000 nM.

For `CN1C[C@@H]2C[C@H]1CN2c1ccc2c(O)c(C(=O)NCc3ccc(C#N)cc3Cl)ncc2n1` [compound 58], the IC50 at PHD2 is under 5 nM. This molecule had an EC50 with Hep3B cell of 10000 to 100000 nM.

On to `N#Cc1ccc(CNC(=O)c2ncc3nc(N4C[C@@H]5C[C@H]4CO5)ccc3c2O)cn1` [compound 44], for which, at PHD2, the IC50 is under 5 nM. For the same molecule, the EC50 in the experiment on Hep3B cell was in the range of 2500 to 5000 nM. The corresponding values for `N#Cc1ccc(CNC(=O)c2ncc3nc(N4CCC5(COC5)C4)ccc3c2O)cn1` [compound 25] are under 5 nM and under 2500 nM.

Turning to `N#Cc1ccc(CNC(=O)c2ncc3nc(N4C[C@H]5C[C@@H]4CN5C4CC4)ccc3c2O)c(Cl)c1` [compound 69], the IC50 at PHD2 lay in the range of 5 to 20 nM. Further, the EC50 with Hep3B cell is 2500 to 5000 nM.

Molecule `CC(C)(C)OC(=O)N1CCOC2(C1)CN(c1ccc3c(O)c(C(=O)NCc4ccc(C#N)nc4)ncc3n1)C2` [compound 118] registered an IC50 on PHD2 of under 5 nM. The EC50 with Hep3B cell was 2500 to 5000 nM.
